Data as given in ChEMBL document CHEMBL2311342, “Inhibitors of the Yersinia protein tyrosine phosphatase through high throughput and virtual screening approaches” (Bioorg Med Chem Lett, 2013).

Test: Inhibition of Yersinia pestis YopH catalytic domain (residues 163-468) using pNPP substrate
Work on `O=C(O)c1ccc(-c2nc(-c3ccc(-c4ccccc4)cc3)c(-c3ccc(-c4ccccc4)cc3)[nH]2)cc1` yielded an IC50 of 2150 nM. For `Cc1c(/C(=N/OC(=O)c2ccc(F)cc2)C(F)(F)F)cc(-c2ccc(S(C)(=O)=O)cc2)n1-c1ccc(F)cc1`, the IC50 was 2350 nM. For `O=C1Nc2ccc(Br)cc2/C1=C1/SC(=S)N(c2cccc(C(F)(F)F)c2)C1=O`, the IC50 was 1220 nM. `Cc1c(N=c2c(=O)c3ccccc3c2=O)c(=O)n(-c2ccccc2)n1C` gave an IC50 of 4010 nM. In the case of `O=C(O)c1ccc(N2C(=O)c3ccc(-c4nc5ccccc5c(=O)o4)cc3C2=O)cc1`, the IC50 is reported as 1920 nM. `O=C(COc1ccccc1)N1CCN(S(=O)(=O)c2ccccc2[N+](=O)[O-])CC1` gave an IC50 of 980 nM. For `O=C(O)c1cc(-c2ccc(/C=N/Nc3nc4nonc4nc3Nc3ccc(F)cc3)o2)ccc1O`, the IC50 was 380 nM. Work on `NC(=S)N1N=C(c2ccc([N+](=O)[O-])cc2)/C(=N\Nc2ccc(S(=O)(=O)O)cc2)C1=O` yielded an IC50 of 4610 nM. Work on `CN1C(=O)C(=Cc2cn(Cc3cnc(Cl)s3)c3ccccc23)C(=O)N(C)C1=O` yielded an IC50 of 4610 nM. `CCCCN1C(=O)/C(=C2\SC(N3CCC(C(N)=O)CC3)=NC2=O)c2ccccc21` gave an IC50 of 1680 nM. `O=C1NC(=S)NC(=O)C1=Cc1ccc(N2CCc3ccccc3C2)c([N+](=O)[O-])c1` showed an IC50 of 4730 nM. Work on `Cn1nc(-c2cccs2)nc2c(=O)n(C)c(=O)nc1-2` yielded an IC50 of 880 nM. `O=C1OC(c2ccc(Cl)cc2)=N/C1=C/Nc1ccc(O)c(C(=O)O)c1` showed an IC50 of 8100 nM. Molecule `Cn1nc(-c2ccc(Cl)cc2)nc2c(=O)n(C)c(=O)nc1-2` has an IC50 of 1280 nM. `COc1cc(/C=C2/N=C(c3ccc(Cl)c(Cl)c3)OC2=O)cc(OC)c1OC` showed an IC50 of 4480 nM. In the case of `CN1C(=O)C(=Cc2ccc(OCc3c(F)cccc3Cl)cc2)C(=O)N(C)C1=O`, the IC50 is reported as 9890 nM. In the case of `O=C1NC(=O)C(=Cc2ccc(OCc3ccc([N+](=O)[O-])cc3)c(Br)c2)C(=O)N1`, the IC50 is reported as 1890 nM.
